Measured values reported in article PMC4519859, “Synthesis and Biological Evaluation of Novel Dehydroabietic Acid Derivatives Conjugated with Acyl-Thiourea Peptide Moiety as Antitumor Agents” (International Journal of Molecular Sciences, 2015).

Assays:
Type in all cases: cell-based
[1] = test system: HL-7702; assay: MTT cytotoxicity assay, HL-7702 normal cells; settings: L02, 48 h, normal human cells, mean ± SD, three independent experiments
Experimental: [The source words this procedure for another cell line and reports this cell line under the same test.] (§1) The in vitro cytotoxic potency of DHAA acyl-thiourea derivatives 8a–8o and 9a–9o were evaluated by 3-(4,5-dimethylthiazol-2-yl)-2,5-diphenyltetrazolium bromide (MTT) assay against HeLa, SK-OV-3 and MGC-803 tumor cell lines, with 5-FU as the positive control.
(§2) General procedure for cytotoxic evaluation in vitro: HeLa, HepG2, SK-OV-3 and MGC-803 cells were seeded into 96-well microculture plates and allowed to adhere for 24 h, respectively. After cells were exposed to compounds at concentrations from 100 to 0.01 μM for 48 h, medium was aspirated and replenished with complete medium. IC50 was evaluated by MTT tetrazolium dye assay. Each experiment was performed three times; Statistical analysis: All statistical analysis was performed with SPSS Version 10 (SPSS, Chicago, IL, USA). Data was analyzed by one-way ANOVA. Mean separations were performed using the least significant difference method. Each experiment was replicated thrice, and all experiments yielded similar results. Measurements from all the replicates were combined, and treatment effects were analyzed.

[2] = test system: SK-OV-3; assay: MTT cytotoxicity assay, SK-OV-3; settings: Homo sapiens, 48 h, mean ± SD, three independent experiments
Experimental: as §1, §2

[3] = test system: HeLa; assay: MTT cytotoxicity assay, HeLa; settings: Homo sapiens, 48 h, mean ± SD, three independent experiments
Experimental: as §1, §2

[4] = test system: MGC-803; assay: MTT cytotoxicity assay, MGC-803; settings: Homo sapiens, 48 h, mean ± SD, three independent experiments
Experimental: as §1, §2

Cc1ccccc1NC(=O)[C@@H](Cc1ccccc1)NC(=S)NC(=O)[C@]1(C)CCC[C@]2(C)c3ccc(C(C)C)cc3CCC12 (stereo partly drawn) [Compound 9b, (1R,4aS)-7-Isopropyl-1,4a-dimethyl-N-(((R)-1-oxo-3-phenyl-1-(o-tolylamino)propan-2-yl)carbamothioyl)-1,2,3,4,4a,9,10,10a-octahydrophenanthrene-1-carboxamide]
IC50 [1]: 38.6 ± 1.65 µM | IC50 [2]: 18.5 ± 1.44 µM | IC50 [3]: 17.7 ± 1.34 µM | IC50 [4]: 14.1 ± 1.12 µM

CC(C)c1ccc2c(c1)CCC1[C@](C)(C(=O)NC(=S)N[C@H](Cc3ccccc3)C(=O)Nc3ccccc3Cl)CCC[C@]21C (stereo partly drawn) [Compound 9d, (1R,4aS)-N-(((R)-1-((2-Chlorophenyl)amino)-1-oxo-3-phenylpropan-2-yl)carbamothioyl)-7-isopropyl-1,4a-dimethyl-1,2,3,4,4a,9,10,10a-octahydrophenanthrene-1-carboxamide]
IC50 [1]: 36.5 ± 1.43 µM | IC50 [2]: 16.9 ± 1.43 µM | IC50 [3]: 17 ± 1.76 µM | IC50 [4]: 20.4 ± 3.41 µM

CC(C)c1ccc2c(c1)CCC1[C@](C)(C(=O)NC(=S)N[C@H](C)C(=O)Nc3ccccc3Cl)CCC[C@]21C (stereo partly drawn) [Compound 8d, (1R,4aS)-N-(((R)-1-((2-Chlorophenyl)amino)-1-oxopropan-2-yl)carbamothioyl)-7-isopropyl-1,4a-dimethyl-1,2,3,4,4a,9,10,10a-octahydrophenanthrene-1-carboxamide]
IC50 [1]: 69.4 ± 4.23 µM | IC50 [2]: 48.3 ± 4.21 µM | IC50 [3]: 19.7 ± 1.23 µM | IC50 [4]: 20.6 ± 1.57 µM

COc1ccccc1NC(=O)[C@@H](C)NC(=S)NC(=O)[C@]1(C)CCC[C@]2(C)c3ccc(C(C)C)cc3CCC12 (stereo partly drawn) [Compound 8f, (1R,4aS)-7-Isopropyl-N-(((R)-1-((2-methoxyphenyl)amino)-1-oxopropan-2-yl)carbamothioyl)-1,4a-dimethyl-1,2,3,4,4a,9,10,10a-octahydrophenanthrene-1-carboxamide]
IC50 [1]: 44.7 ± 3.34 µM | IC50 [2]: 23 ± 3.01 µM | IC50 [3]: 28.1 ± 2.11 µM | IC50 [4]: 17.9 ± 1.73 µM

COc1ccc(NC(=O)[C@@H](C)NC(=S)NC(=O)[C@]2(C)CCC[C@]3(C)c4ccc(C(C)C)cc4CCC23)cc1 (stereo partly drawn) [Compound 8g, (1R,4aS)-7-Isopropyl-N-(((R)-1-((4-methoxyphenyl)amino)-1-oxopropan-2-yl)carbamothioyl)-1,4a-dimethyl-1,2,3,4,4a,9,10,10a-octahydrophenanthrene-1-carboxamide]
IC50 [1]: 43.6 ± 2.43 µM | IC50 [2]: 26.8 ± 2.47 µM | IC50 [3]: 27.4 ± 2.43 µM | IC50 [4]: 18.6 ± 1.72 µM

CC(C)c1ccc2c(c1)CCC1[C@](C)(C(=O)NC(=S)N[C@H](Cc3ccccc3)C(=O)Nc3ccc(Cl)cc3)CCC[C@]21C (stereo partly drawn) [Compound 9e, (1R,4aS)-N-(((R)-1-((4-Chlorophenyl)amino)-1-oxo-3-phenylpropan-2-yl)carbamothioyl)-7-isopropyl-1,4a-dimethyl-1,2,3,4,4a,9,10,10a-octahydrophenanthrene-1-carboxamide]
IC50 [1]: 38.5 ± 1.22 µM | IC50 [2]: 18.5 ± 1.27 µM | IC50 [3]: 17.2 ± 1.25 µM | IC50 [4]: 17.1 ± 2.87 µM

COc1ccccc1NC(=O)[C@@H](Cc1ccccc1)NC(=S)NC(=O)[C@]1(C)CCC[C@]2(C)c3ccc(C(C)C)cc3CCC12 (stereo partly drawn) [Compound 9f, (1R,4aS)-7-Isopropyl-N-(((R)-1-((2-methoxyphenyl)amino)-1-oxo-3-phenylpropan-2-yl)carbamothioyl)-1,4a-dimethyl-1,2,3,4,4a,9,10,10a-octahydrophenanthrene-1-carboxamide]
IC50 [1]: 38.4 ± 1.45 µM | IC50 [2]: 18.9 ± 1.72 µM | IC50 [3]: 28.1 ± 2.23 µM | IC50 [4]: 20.7 ± 1.41 µM

CC(C)c1ccc2c(c1)CCC1[C@](C)(C(=O)NC(=S)N[C@H](C)C(=O)Nc3ccccn3)CCC[C@]21C (stereo partly drawn) [Compound 8n, (1R,4aS)-7-Isopropyl-1,4a-dimethyl-N-(((R)-1-oxo-1-(pyridin-2-ylamino)propan-2-yl)carbamothioyl)-1,2,3,4,4a,9,10,10a-octahydrophenanthrene-1-carboxamide]
IC50 [1]: 48.8 ± 2.44 µM | IC50 [2]: 25.2 ± 2.43 µM | IC50 [3]: 14.3 ± 1.33 µM | IC50 [4]: 19.3 ± 1.32 µM
